Experimental data: ChEMBL document CHEMBL4196001, “Design, semisynthesis, α-glucosidase inhibitory, cytotoxic, and antibacterial activities of p-terphenyl derivatives” (Eur J Med Chem, 2018)
Converted amounts (≈) assume the structure as drawn. Where a name gives a salt, the structure may show the parent alone. The source made the active and inactive calls. The rule behind the calls is not given here.

How the values were obtained:
[1] = Cytotoxicity against human Chang cells by SRB assay; type: cell-based
[2] = system: A549; test: Cytotoxicity against human A549 cells at 10 uM by SRB assay; type: functional, cell-based
[3] = system: HeLa; test: Cytotoxicity against human HeLa cells at 10 uM by SRB assay; type: functional, cell-based
[4] = system: HepG2; test: Cytotoxicity against human HepG2 cells at 10 uM by SRB assay; type: functional, cell-based
[5] = biological target: T1, Alpha glucosidase (Homo sapiens, UniProt O43451+P10253+P14410+Q2M2H8); test: Inhibition of human alpha-glucosidase expressed in Saccharomyces cerevisiae using p-nitrophenyl-alpha-D-glucopyranoside as substrate after 15 mins
[6] = system: A549; test: Cytotoxicity against human A549 cells by SRB assay; type: functional, cell-based
[7] = system: HeLa; test: Cytotoxicity against human HeLa cells by SRB assay; type: functional, cell-based
[8] = system: HepG2; test: Cytotoxicity against human HepG2 cells by SRB assay; type: functional, cell-based
[9] = system: Staphylococcus aureus; test: Antibacterial activity against Staphylococcus aureus after 24 hrs by broth macrodilution method; type: functional
[10] = biological target: T1, Alpha glucosidase; test: Inhibition of human alpha-glucosidase expressed in Saccharomyces cerevisiae at 10 uM using p-nitrophenyl-alpha-D-glucopyranoside as substrate after 15 mins by two-fold serial dilution method
[11] = Cytotoxicity against human Chang cells at 10 uM by SRB assay; type: cell-based

Structure (SMILES)	IC50 [5] [µM]	MIC [9] [µM]	inhibition [10]	CC50 [1] [µM]	Activity [2]	Activity [3]	Activity [4]	IC50 [6] [nM]	IC50 [7] [nM]	IC50 [8] [nM]	Activity [11]
COc1cc(-c2ccc(OC(c3ccccc3)c3ccccc3)cc2)c(OC)c(O)c1-c1ccc(O)cc1	–	–	–	22.3	inactive	inactive	inactive	–	–	–	–
COc1cc(-c2ccc(OCC=C(C)C)cc2)c(OC)c(OCC=C(C)C)c1-c1ccc(O)cc1	53.1	–	–	7.34	–	–	–	3360	3370	5260	–
COc1cc(-c2ccc(O)cc2)c(OC)c(OCCN2CCCC2)c1-c1ccc(O)cc1	–	–	–	–	inactive	inactive	inactive	–	–	–	–
C#CCOc1ccc(-c2cc(OC)c(-c3ccc(OCC#C)cc3)c(OCC#C)c2OC)cc1	–	–	inactive	–	inactive	inactive	inactive	–	–	–	Non-Toxic
C=CCOc1ccc(-c2cc(OC)c(-c3ccc(O)cc3)c(OCC=C)c2OC)cc1	8.77	–	–	< 0.62	–	–	–	250	150	430	–
O=C1C=C(c2ccc(O)cc2)C(=O)C(O)=C1c1ccc(O)cc1	22.7	–	–	> 100	inactive	inactive	inactive	–	–	–	–
COc1cc(-c2ccc(OCC(=O)O)cc2)c(OC)c(O)c1-c1ccc(O)cc1	–	–	–	–	inactive	inactive	inactive	–	–	–	–
COc1cccc2c1C(=O)c1c(O)c3c(c(O)c1C2=O)C[C@@](O)(C(=O)CO)C[C@@H]3O[C@H]1C[C@H](N)[C@H](O)[C@H](C)O1 [DOXORUBICIN HYDROCHLORIDE]	–	–	–	–	–	–	–	160	–	–	–
COc1cc(-c2ccc(OCc3ccccc3)cc2)c(OC)c(O)c1-c1ccc(O)cc1	12.5	6.25 (≈ 2.68 µg/mL)	–	39.1	inactive	inactive	inactive	–	–	–	–
COc1cc(-c2ccc(OCCN3CCCC3)cc2)c(OC)c(O)c1-c1ccc(O)cc1	–	–	–	–	inactive	inactive	inactive	–	–	–	–
C=CCOc1ccc(-c2cc(OC)c(-c3ccc(O)cc3)c(O)c2OC)cc1	26.5	–	–	–	inactive	inactive	inactive	–	–	–	Non-Toxic
C=CCOc1ccc(-c2cc(OC)c(-c3ccc(OCC=C)cc3)c(OCC=C)c2OC)cc1	–	–	inactive	–	inactive	–	inactive	–	10100	–	Non-Toxic
COc1cc(-c2ccc(O)cc2)c(OC)c(OC(C)=O)c1-c1ccc(O)cc1	–	–	–	–	inactive	inactive	inactive	–	–	–	Non-Toxic
COc1cc(-c2ccc(OCC=C(C)C)cc2)c(OC)c(O)c1-c1ccc(O)cc1	20.1	6.25 (≈ 2.54 µg/mL)	–	26.2	inactive	inactive	inactive	–	–	–	–
COc1cc(-c2ccc(O)cc2)c(OC)c(O)c1-c1ccc(OC(c2ccccc2)c2ccccc2)cc1	–	–	–	48.3	inactive	inactive	inactive	–	–	–	–
COc1cc(-c2ccc(OCC=C(C)C)cc2)c(OC)c(OCC=C(C)C)c1-c1ccc(OCC=C(C)C)cc1	–	–	inactive	–	inactive	inactive	inactive	–	–	–	Non-Toxic
COc1c(Cl)c(-c2ccc(O)cc2)c(OC)c(O)c1-c1ccc(O)cc1	31.3	–	–	–	inactive	inactive	inactive	–	–	–	Non-Toxic
COc1cc(-c2ccc(O)cc2)c(OC)c(OC(=O)c2ccc(F)cc2)c1-c1ccc(O)cc1	–	–	–	–	inactive	inactive	inactive	–	–	–	Non-Toxic

Second part, led by results:

IC50 [5] [µM]	MIC [9] [µM]	inhibition [10]	Structure (SMILES)	CC50 [1] [µM]	Activity [2]	Activity [3]	Activity [4]	IC50 [6] [nM]	IC50 [7] [nM]	IC50 [8] [nM]	Activity [11]
18	–	–	COc1cc(-c2ccc(O)cc2)c(OC)c(O)c1-c1ccc(OCCBr)cc1	54.4	inactive	inactive	inactive	–	–	–	–
18.8	6.25 (≈ 2.78 µg/mL)	–	COc1cc(-c2ccc(O)cc2)c(OC)c(OCCBr)c1-c1ccc(O)cc1	39.1	inactive	inactive	inactive	–	–	–	–
12.2	–	–	COc1cc(-c2ccc(OCc3ccc(-c4ccccc4)cc3)cc2)c(OC)c(O)c1-c1ccc(O)cc1	12.7	inactive	inactive	inactive	–	–	–	–
12.5	6.25 (≈ 2.68 µg/mL)	–	COc1cc(-c2ccc(O)cc2)c(OC)c(O)c1-c1ccc(OCc2ccccc2)cc1	23.1	inactive	inactive	inactive	–	–	–	–
–	–	inactive	COc1cc(-c2ccc(OCCBr)cc2)c(OC)c(OCCBr)c1-c1ccc(OCCBr)cc1	–	inactive	inactive	inactive	–	–	–	Non-Toxic
–	–	inactive	CCCOc1ccc(-c2cc(OC)c(-c3ccc(OCCC)cc3)c(O)c2OC)cc1	–	inactive	inactive	inactive	–	–	–	Non-Toxic
19.3	6.25 (≈ 2.38 µg/mL)	–	CCCOc1c(OC)c(-c2ccc(O)cc2)cc(OC)c1-c1ccc(O)cc1	14.5	inactive	inactive	inactive	–	–	–	–
10.7	–	–	CCCOc1ccc(-c2c(OC)cc(-c3ccc(O)cc3)c(OC)c2OCCC)cc1	13.1	inactive	inactive	inactive	–	–	–	–
19.1	6.25 (≈ 2.68 µg/mL)	–	COc1cc(-c2ccc(O)cc2)c(OC)c(OCc2ccccc2)c1-c1ccc(O)cc1	17.1	inactive	inactive	inactive	–	–	–	–
–	–	inactive	C=CCOc1ccc(-c2cc(OC)c(-c3ccc(OCC=C)cc3)c(O)c2OC)cc1	–	inactive	inactive	inactive	–	–	–	Non-Toxic
25.7	–	–	COc1cc(-c2ccc(O)cc2)c(OC)c(O)c1-c1ccc(O)c(CC=C(C)C)c1	0.91	inactive	inactive	–	–	–	2740	–
7.14	1.56 (≈ 0.651 µg/mL)	–	COc1c(Br)c(-c2ccc(O)cc2)c(OC)c(O)c1-c1ccc(O)cc1	–	inactive	inactive	inactive	–	–	–	Non-Toxic
–	–	inactive	COc1cc(-c2ccc(OCC=C(C)C)cc2)c(OC)c(O)c1-c1ccc(OCC=C(C)C)cc1	31.1	inactive	–	–	–	2760	4100	–
35.4	–	–	COc1cc(-c2ccc(O)cc2)c(OC)c(OC(=O)c2ccco2)c1-c1ccc(O)cc1	–	inactive	inactive	inactive	–	–	–	Non-Toxic
6.67	–	–	COc1cc(-c2ccc(OCCBr)cc2)c(OC)c(OCCBr)c1-c1ccc(O)cc1	5.05	–	–	–	3060	1580	3850	–
83.8	–	–	C=CCOc1c(OC)c(-c2ccc(O)cc2)cc(OC)c1-c1ccc(O)cc1	–	inactive	inactive	inactive	–	–	–	Non-Toxic
20.1	–	–	C#CCOc1ccc(-c2cc(OC)c(-c3ccc(O)cc3)c(OCC#C)c2OC)cc1	2.31	–	–	–	790	680	1230	–
16.1	–	–	COc1cc(-c2ccc(OCCBr)cc2)c(OC)c(O)c1-c1ccc(O)cc1	95.4	inactive	inactive	inactive	–	–	–	–
23.4	6.25 (≈ 2.54 µg/mL)	–	COc1cc(-c2ccc(O)cc2)c(OC)c(OCC=C(C)C)c1-c1ccc(O)cc1	15.9	inactive	inactive	inactive	–	–	–	–
12.3	–	–	CCCOc1ccc(-c2c(OC)cc(-c3ccc(O)cc3)c(OC)c2O)cc1	–	–	inactive	inactive	10300	–	–	Non-Toxic
14.3	–	–	COc1cc(-c2ccc(OCCC(C)C)cc2)c(OC)c(O)c1-c1ccc(O)cc1	–	inactive	inactive	inactive	–	–	–	Non-Toxic
8.69	–	–	CCCOc1ccc(-c2cc(OC)c(-c3ccc(O)cc3)c(OCCC)c2OC)cc1	0.87	–	–	–	260	180	490	–
–	–	inactive	COc1cc(-c2ccc(OCCBr)cc2)c(OC)c(O)c1-c1ccc(OCCBr)cc1	–	inactive	inactive	inactive	–	–	–	Non-Toxic
–	–	inactive	CCCOc1ccc(-c2cc(OC)c(-c3ccc(OCCC)cc3)c(OCCC)c2OC)cc1	–	inactive	inactive	inactive	–	–	–	Non-Toxic
